Assay results taken from paper PMC3800558 (Insect biochemistry and molecular biology, 2013).

Assays:
CquiOR99 = target: T1, CquiOR99 (Culex quinquefasciatus, UniProt W0HIQ7); format: cell-based
T1 sequence (W0HIQ7 1-389): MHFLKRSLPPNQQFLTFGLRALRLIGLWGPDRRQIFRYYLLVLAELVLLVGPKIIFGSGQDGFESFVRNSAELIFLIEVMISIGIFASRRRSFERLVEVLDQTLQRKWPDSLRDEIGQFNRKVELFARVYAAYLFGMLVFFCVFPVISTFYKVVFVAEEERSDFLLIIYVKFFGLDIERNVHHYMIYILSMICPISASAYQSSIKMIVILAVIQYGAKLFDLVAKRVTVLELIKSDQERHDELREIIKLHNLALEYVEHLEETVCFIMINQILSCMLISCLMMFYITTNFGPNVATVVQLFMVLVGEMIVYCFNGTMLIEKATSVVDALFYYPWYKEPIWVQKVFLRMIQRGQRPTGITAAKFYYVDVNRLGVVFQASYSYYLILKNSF
T1 sequence (Q309I4 1-480 partner): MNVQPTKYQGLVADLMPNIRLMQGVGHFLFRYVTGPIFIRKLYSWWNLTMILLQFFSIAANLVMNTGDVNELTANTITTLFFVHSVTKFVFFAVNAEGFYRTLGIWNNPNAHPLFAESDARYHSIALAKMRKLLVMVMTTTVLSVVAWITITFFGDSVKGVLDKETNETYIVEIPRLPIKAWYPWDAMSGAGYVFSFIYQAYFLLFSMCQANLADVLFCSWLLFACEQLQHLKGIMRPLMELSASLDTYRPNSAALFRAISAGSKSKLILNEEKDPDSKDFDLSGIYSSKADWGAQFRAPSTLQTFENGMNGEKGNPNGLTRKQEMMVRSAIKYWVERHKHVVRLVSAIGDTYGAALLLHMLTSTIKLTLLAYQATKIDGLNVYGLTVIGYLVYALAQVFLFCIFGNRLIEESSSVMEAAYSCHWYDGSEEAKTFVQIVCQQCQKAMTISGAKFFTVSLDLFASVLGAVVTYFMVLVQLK

CquiOR37 = target: T2, CquiOR37 (Culex quinquefasciatus, UniProt W0HHK8); format: cell-based
T2 sequence (W0HHK8 1-385): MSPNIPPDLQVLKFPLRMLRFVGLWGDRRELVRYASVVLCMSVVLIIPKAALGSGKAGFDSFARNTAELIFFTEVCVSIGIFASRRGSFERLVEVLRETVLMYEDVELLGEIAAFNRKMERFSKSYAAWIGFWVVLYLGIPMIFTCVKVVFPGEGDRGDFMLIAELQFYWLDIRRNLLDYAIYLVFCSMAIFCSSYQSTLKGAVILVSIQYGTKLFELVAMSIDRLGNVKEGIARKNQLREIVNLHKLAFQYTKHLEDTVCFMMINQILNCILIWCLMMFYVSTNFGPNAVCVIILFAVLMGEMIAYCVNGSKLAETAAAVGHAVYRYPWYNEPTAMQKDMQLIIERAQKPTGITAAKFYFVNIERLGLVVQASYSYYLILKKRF
T2 sequence (Q309I4 1-480 partner): T1 sequence (Q309I4 1-480 partner)

Row | Compound | EC50 (CquiOR99) [µM] | EC50 (CquiOR37) [µM]
1 | CCc1ccc(O)cc1 [4-ethylphenol] | 0.74 | 18.2
2 | Cc1ccc(O)cc1 [4-methylphenol] | 14.4 | 6.4
